Data published in patent US10183047B2, “Chromium-containing compositions in combination with Phyllanthus emblica and shilajit having synergistic effects for improving endothelial function and cardiovascular health” (Natreon, Inc., priority 2014, dated 2019).

Legend:
Assay type in all cases: in vivo, human
[1] = tested on: glutathione (GSH); assay: Glutathione level, spectrophotometric, type 2 diabetics; conditions: for GSH: DM, 400 mcg; for Mean percentage change in GSH / GSH Post Tt / GSH Pre Tt: type 2 diabetics (Example 3), chromium products 400 mcg; for Mean percentage change in GSH: 12 week treatment; for GSH Post Tt: post-treatment, 12 weeks; for GSH Pre Tt: pre-treatment
Protocol: (§1) The present clinical study is a prospective, randomized, double blind, placebo-controlled study. Patients of either sex, aged 30-65 years, fasting plasma glucose of 110-126 mg/dl, a glycosylated hemoglobin (HbA1c) between 6.5% and 8% and taking stable dose of anti-diabetic treatment (metformin 1500-2000 mg/day) for the past 8 weeks prior to the screening visit; and having endothelial dysfunction defined as ≤6% change in reflection index (RI) on post salbutamol challenge test were included in the study. Patients with severe uncontrolled hyperglyceamia, uncontrolled hypertension, cardiac arrhythmia, impaired hepatic or renal function, history of malignancy or stroke, smoking, chronic alcoholism, any other serious disease requiring active treatment and treatment with any other herbal supplements, were excluded from the study.
(§2) After screening, all the eligible subjects were randomized to receive either one of the three treatments orally for duration of 12 weeks—Group1—one capsule of Crominex®3+, 200 mcg once daily, Group 2—one capsule Crominex®3+, 400 mcg once daily; Group 3—one capsule of placebo once daily.
(§3) Subjects were required for follow up at 4, 8 and 12 weeks of therapy. At each visit they were evaluated for efficacy and safety. Pharmacodynamic evaluation for endothelial function was conducted at every visit. Blood samples were collected for evaluation of biomarkers before and at the end of treatment. Safety lab investigations for hematological, hepatic and renal biochemical parameters were conducted before and at the end of the study and also as and when required (in case of any adverse drug reaction (ADR). Subjects were enquired for the presence of ADR and the same was recorded in the case report form. Compliance to therapy was assessed by pill count method.
(§4) Nitric oxide, MDA, Glutathione and levels were estimated spectrophotometrically as follows. Malondialdehyde (MDA) levels were determined as described in Vidyasagar, et al., “Oxidative stress and antioxidant status in acute organophosphorous insecticide poisoning,” Indian J. Pharmacol. (April 2004) 36(2): 76-79. Glutathione levels were determined as described in G. L. Ellman, Arch. Biochem. Biophys. (1959) 82: 70-77 (original determination). Nitric oxide levels were estimated spectrophotometrically as described in Miranda, et al., “A Rapid, Simple Spectrophotometric Method for Simultaneous Detection of Nitrate and Nitrite,” NITRIC OXIDE: Biology and Chemistry (2001) Vol. 5, No. 1, pp. 62-71. hsCRP (high sensitivity C-reactive protein) was determined by ELISA method.
(§5) When the results with Crominex® 3+ in the above two examples were highly significant, especially with the 400 mcg once daily dose in type 2 diabetics, two more clinical studies (EXAMPLES 3 & 4) were conducted at the same institute, following the same methodology as described earlier, on the individual components of Crominex® 3+, i.e., chromium chloride and Phyllanthus emblica+Shilajit, and other chromium supplements available in the market, i.e., chromium picolinate, chromium polynicotinate and chromium dinicocysteinate, in type 2 diabetics as well as in subjects with metabolic syndrome symptoms.

[2] = tested on: Glycosylated Hemoglobin A1c (HbA1c); assay: Glycosylated hemoglobin A1c, type 2 diabetics; conditions: for HbA1c (Abs.): DM, 400 mcg, absolute change; for Absolute change in HbA1c / HbA1c Post Tt / HbA1c Pre Tt: type 2 diabetics (Example 3), chromium products 400 mcg; for Absolute change in HbA1c: after 12 weeks treatment; for HbA1c Post Tt: post-treatment, 12 weeks; for HbA1c Pre Tt: pre-treatment
Protocol: as §1, §2, §3
(§6) All the subjects had undergone complete physical examination, safety lab evaluations at baseline and at the end of the treatment. Samples were collected after an overnight fast of 12 hrs after the last dose of medication for determination of hemoglobin, glycosylated hemoglobin (HbA1c), blood urea, serum creatinine, liver function, lipid profile (Total cholesterol, High density lipoprotein cholesterol (HDL-C), low density lipoprotein cholesterol (LDL-C) using appropriate standard techniques.
as §5

[3] = tested on: fasting plasma glucose; assay: Fasting plasma glucose, type 2 diabetics; conditions: for Fasting Glucose: DM, 400 mcg; for Fasting Plasma Glucose Post Tt / Fasting Plasma Glucose Pre Tt: type 2 diabetics (Example 3), chromium products 400 mcg; for Fasting Plasma Glucose Post Tt: post-treatment, 12 weeks; for Fasting Plasma Glucose Pre Tt: pre-treatment
Protocol: as §5

[4] = tested on: glutathione (GSH); assay: Glutathione level, metabolic syndrome subjects; conditions: for GSH: MS, 400 mcg; for GSH Post Tt / Mean percentage change in GSH / GSH Pre Tt: metabolic syndrome subjects (Example 4), chromium products 400 mcg; for GSH Post Tt: after 12 weeks of treatment; for Mean percentage change in GSH: after 12 weeks treatment; for GSH Pre Tt: pre-treatment
Protocol: as §4
Patients included in the study, were of either gender, aged 30-68 years, having endothelial dysfunction defined as ≤6% change in reflection index (RI) on post salbutamol challenge test and central obesity as defined by The International Diabetes Federation guidelines, dated 2006, and any two of the following conditions:
After screening, all the eligible subjects were randomized to receive either one of the three treatments orally for duration of 12 weeks: group 1—one capsule of Crominex®3+ 200 mcg once daily; group 2—one capsule 400 mcg once daily; group 3—one capsule of Placebo once daily.
Subjects were reviewed for follow up at 4 weeks, 8 and 12 weeks of therapy. At each visit they were evaluated for efficacy and safety. Pharmacodynamic evaluation for endothelial function was conducted at baseline and end of treatment. Blood samples were collected for evaluation of biomarkers before and at end of treatment. Safety lab investigations for hematological, hepatic and renal biochemical parameters were conducted before and at the end of the study and also as and when required (in case of any adverse drug reaction (ADR)). Subjects were enquired for the presence of ADR and the same was recorded in the case report form. Compliance to therapy was assessed by pill count method.
Assessment of endothelial function, biomarkers, safety parameters and primary and secondary efficacy parameters and data analysis were performed as described under the study with type 2 diabetic subjects in Example 1.
as §5

[5] = tested on: lipid profile; assay: Lipid profile (TC, HDL-C, LDL-C, TG, VLDL-C), type 2 diabetics; conditions: for HDL / LDL / TC / TG: DM, 400 mcg; for Mean percentage change in HDL-C / Mean percentage change in LDL-C / Mean percentage change in Total Cholesterol / Mean percentage change in Triglycerides / HDL-C Post Tt / LDL-C Post Tt / Total Cholesterol Post Tt / Triglycerides Post Tt / HDL-C Pre Tt / LDL-C Pre Tt / Total Cholesterol Pre Tt / Triglycerides Pre Tt: type 2 diabetics (Example 3), chromium products 400 mcg; for Mean percentage change in HDL-C / Mean percentage change in LDL-C / Mean percentage change in Total Cholesterol / Mean percentage change in Triglycerides: 12 weeks of treatment; for HDL-C Post Tt / LDL-C Post Tt / Total Cholesterol Post Tt / Triglycerides Post Tt: post-treatment, 12 weeks; for HDL-C Pre Tt / LDL-C Pre Tt / Total Cholesterol Pre Tt / Triglycerides Pre Tt: pre-treatment
Protocol: as §1, §2, §3, §6, §5

Compound	GSH [1] [%]	Mean percentage change in GSH [1]	GSH Post Tt [1] [μM/L]	GSH Pre Tt [1] [μM/L]	HbA1c (Abs.) [2]	Absolute change in HbA1c [2]	HbA1c Post Tt [2] [NS %]	HbA1c Pre Tt [2] [%]	Fasting Glucose [3] [%]	Fasting Plasma Glucose Post Tt [3]	Fasting Plasma Glucose Pre Tt [3]	GSH [4] [%]	GSH Post Tt [4] [μM/L]	Mean percentage change in GSH [4] [%]	GSH Pre Tt [4] [μM/L]	HDL [5] [%]	LDL [5] [%]	TC [5] [%]	TG [5] [%]	Mean percentage change in HDL-C [5]	further results
chromium dinicocysteinate	5.77	5.77 ± 1.47 #$NS %	563.66 ± 11.04	532.95 ± 10.63	−0.01	−0.01 ± 0.07 #NS %	7.10 ± 0.08	7.11 ± 0.08	−3.2	132.3 ± 4.41 $ mg/dL	136.8 ± 6.99^ mg/dL	5.4	558.38 ± 33.94	5.41 ± 1.38	529.89 ± 33.97	1.19	−0.81	−0.38	−0.37	1.19 ± 4.01 NS %	Mean percentage change in LDL-C [5]: −0.81 ± 1.52 $NS %; Mean percentage change in Total Cholesterol [5]: −0.38 ± 0.86 #NS %; Mean percentage change in Triglycerides [5]: −0.37 ± 0.92 NS %; HDL-C Post Tt [5]: 37.83 ± 2.90 NS mg/dl; LDL-C Post Tt [5]: 128.91 ± 16.46 $^ mg/dl; Total Cholesterol Post Tt [5]: 201.28 ± 17.29 NS mg/dl; Triglycerides Post Tt [5]: 172.67 ± 3.88 NS mg/dl; HDL-C Pre Tt [5]: 37.39 ± 2.43 mg/dL; LDL-C Pre Tt [5]: 130.00 ± 16.71 mg/dL; Total Cholesterol Pre Tt [5]: 202.06 ± 17.48 mg/dL; Triglycerides Pre Tt [5]: 173.33 ± 4.83 mg/dL
chromium picolinate	7.2	7.20 ± 0.82 #@NS %	535.96 ± 31.89	499.99 ± 30.23	−0.02	−0.02 ± 0.08 #NS %	7.03 ± 0.15	7.05 ± 0.11	1.2	134.84 ± 6.78 NS mg/dL	133.21 ± 8.27 mg/dL	7.1	550.63 ± 26.21	7.07 ± 1.95	514.35 ± 25.09	2.96	−2.35	−0.99	−0.58	2.96 ± 3.38 @NS %	Mean percentage change in LDL-C [5]: −2.35 ± 1.81 @NS %; Mean percentage change in Total Cholesterol [5]: −0.99 ± 1.08NS %; Mean percentage change in Triglycerides [5]: −0.58 ± 1.04 NS %; HDL-C Post Tt [5]: 39.84 ± 1.12 $ mg/dl; LDL-C Post Tt [5]: 119.07 ± 18.46 mg/dL; Total Cholesterol Post Tt [5]: 194.68 ± 17.93 $ mg/dl; Triglycerides Post Tt [5]: 178.84 ± 8.45 $ mg/dl; HDL-C Pre Tt [5]: 38.74 ± 1.69 mg/dL; LDL-C Pre Tt [5]: 121.92 ± 18.50 mg/dL; Total Cholesterol Pre Tt [5]: 196.63 ± 18.07 mg/dL; Triglycerides Pre Tt [5]: 179.89 ± 8.65 mg/dL
O.O.O.O.O.O.[Cl][Cr]([Cl])[Cl] [Chromium chloride, Chromium chloride (CrCl3.6H2O)]	4.22	4.22 ± 0.64 #$NS %	527.08 ± 16.98	505.73 ± 16.66	−0.02	−0.02 ± 0.10 #NS %	6.89 ± 0.16	6.91 ± 0.16	0.87	134.21 ± 9.32 NS mg/dL	133.05 ± 7.95 mg/dL	4.2	542.56 ± 46.51	4.17 ± 1.80	521.35 ± 49.06	2.79	−1.3	−0.28	−0.49	2.79 ± 2.88 @NS %	Mean percentage change in LDL-C [5]: −1.30 ± 1.42 NS %; Mean percentage change in Total Cholesterol [5]: −0.28 ± 0.81 #NS %; Mean percentage change in Triglycerides [5]: −0.49 ± 0.93 NS %; HDL-C Post Tt [5]: 39.95 ± 2.72 mg/dL; LDL-C Post Tt [5]: 108.93 ± 10.40 mg/dL; Total Cholesterol Post Tt [5]: 184.89 ± 9.67 NS mg/dl; Triglycerides Post Tt [5]: 180.11 ± 7.80 $ mg/dl; HDL-C Pre Tt [5]: 38.89 ± 2.85 mg/dL; LDL-C Pre Tt [5]: 110.33 ± 10.74 mg/dL; Total Cholesterol Pre Tt [5]: 185.42 ± 9.68 mg/dL; Triglycerides Pre Tt [5]: 181.00 ± 7.84 mg/dL
chromium polynicotinate	5.3	5.30 ± 1.04 #@NS %	534.54 ± 32.56	507.72 ± 31.73	−0.01	0.01 ± 0.10 #NS %	7.09 ± 0.13	7.08 ± 0.08	0.63	136.3 ± 7.86 NS mg/dL	135.45 ± 7.45 mg/dL	5.1	549.43 ± 20.18	5.09 ± 1.36	522.92 ± 20.68	−1.23	−0.38	−0.68	−0.68	−1.23 ± 3.71 @NS %	Mean percentage change in LDL-C [5]: −0.38 ± 2.10 @NS %; Mean percentage change in Total Cholesterol [5]: −0.68 ± 1.21$NS %; Mean percentage change in Triglycerides [5]: −0.68 ± 0.83 NS %; HDL-C Post Tt [5]: 38.65 ± 1.42 NS mg/dl; LDL-C Post Tt [5]: 123.32 ± 8.70 NS mg/dl; Total Cholesterol Post Tt [5]: 198.00 ± 8.64 $^ mg/dl; Triglycerides Post Tt [5]: 180.15 ± 3.84 @ mg/dl; HDL-C Pre Tt [5]: 39.15 ± 1.23 mg/dL; LDL-C Pre Tt [5]: 123.97 ± 9.73 mg/dL; Total Cholesterol Pre Tt [5]: 199.40 ± 9.25 mg/dL; Triglycerides Pre Tt [5]: 181.40 ± 4.47 mg/dL
